In publication PMC5428354, “Screening of a natural compound library identifies emodin, a natural compound from Rheum palmatum Linn that inhibits DPP4” (PeerJ, 2017):
Like-named read-outs stand apart in the source and are kept apart here.

Target: DPP4 (Homo sapiens, UniProt P27487)
Experiment: DPP4 activity assay (DPP4 inhibitor screening assay kit, Cayman);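 note: fluorescence read at excitation 360 nm and emission 460 nm after the enzyme reaction ran 30 min at 37 °C in a 96-well plate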
Type: biochemical
Set-up: purchased Cayman Chemical, Ann Arbor, MI, USA
Settings: for remaining activity at 10 µM: 0.5 h
[1] = 10 µM, control mean 100.0, Figure 1A raw data
[2] = 10 µM, control mean 100.0, mean of Exp 1-3
[3] = 10 µM, control mean 100.0, Figure 1A raw data, read-out: DPP4 activity in library screen, Exp 1
[4] = 10 µM, control mean 100.0, Figure 1A raw data, read-out: DPP4 activity in library screen, Exp 2
[5] = 10 µM, control mean 100.0, Figure 1A raw data, read-out: DPP4 activity in library screen, Exp 3
[6] = 10 µM, control mean 100.0, mean of Exp 1-3, read-out: DPP4 activity in library screen, Mean

DPP4, sequence (P27487 whole entry): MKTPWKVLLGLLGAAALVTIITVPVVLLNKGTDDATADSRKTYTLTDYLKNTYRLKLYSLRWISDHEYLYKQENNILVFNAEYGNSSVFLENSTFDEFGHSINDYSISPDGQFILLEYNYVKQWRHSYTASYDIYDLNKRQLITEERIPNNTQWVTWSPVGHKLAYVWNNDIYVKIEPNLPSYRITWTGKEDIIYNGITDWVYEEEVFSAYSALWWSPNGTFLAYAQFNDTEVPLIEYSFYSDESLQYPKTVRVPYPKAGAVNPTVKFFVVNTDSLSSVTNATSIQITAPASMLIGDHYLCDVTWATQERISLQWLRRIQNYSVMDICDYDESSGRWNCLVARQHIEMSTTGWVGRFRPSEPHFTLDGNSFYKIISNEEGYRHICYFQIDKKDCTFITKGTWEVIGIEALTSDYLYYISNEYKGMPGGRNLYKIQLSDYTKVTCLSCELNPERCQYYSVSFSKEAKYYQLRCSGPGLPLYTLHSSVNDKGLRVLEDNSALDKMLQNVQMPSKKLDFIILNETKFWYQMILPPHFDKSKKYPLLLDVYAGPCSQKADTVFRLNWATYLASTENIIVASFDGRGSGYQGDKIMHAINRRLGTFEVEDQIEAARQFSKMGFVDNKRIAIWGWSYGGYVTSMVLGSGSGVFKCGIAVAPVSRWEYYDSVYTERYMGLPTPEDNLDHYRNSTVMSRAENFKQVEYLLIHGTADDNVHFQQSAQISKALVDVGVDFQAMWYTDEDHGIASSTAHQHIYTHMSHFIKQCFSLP

Structure (SMILES)	remaining activity at 10 µM [3] [%]	remaining activity at 10 µM [4] [%]	remaining activity at 10 µM [5] [%]	remaining activity at 10 µM [6] [%]	DPP4 activity in library screen, Exp 1 [1]	DPP4 activity in library screen, Exp 2 [1]	DPP4 activity in library screen, Exp 3 [1]	DPP4 activity in library screen, Mean [2]	also measured
C[N+](C)(C)CC(O)CC(=O)O.[Cl-] (racemic) [DL-Carnitine HCl]	–	–	–	–	97.3	93.1	99.1	96.5	–
CC(=O)c1c(O)c(C)c(O)c2c1OC1=CC(=O)C(C(C)=O)C(=O)C12C (single isomer, unassigned; (+)) [(+)-Usniacin]	–	–	–	–	88.7	90.4	89.7	89.6	–
Cc1cc(=O)oc2cc(O)ccc12 [4-Methylumbelliferone (4-MU), 4-Methylumbelliferone]	–	–	–	–	–	–	–	auto-fluorescence	–
O=C1CCC[C@@H]2[C@H]3CCCN4CCC[C@@H](CN12)[C@@H]34 [(+)-Matrine]	–	–	–	–	101.6	98	94.4	98.0	–
C=C1C(=O)O[C@H]2[C@H]1CC/C(C)=C/CC[C@@]1(C)O[C@@H]21 [(-)-Parthenolide]	–	–	–	–	73.3	84.6	113.2	90.4	–
CC[C@@]1(O)C(=O)OCc2c1cc1n(c2=O)Cc2cc3cc(O)ccc3nc2-1 [(S)-10-Hydroxycamptothecin]	87.4	77.6	85.7	83.6	–	–	–	–	–
CC1(C)[C@@H](O[C@H]2O[C@H](C(=O)O)[C@@H](O)[C@H](O)[C@H]2O[C@@H]2O[C@H](C(=O)O)[C@@H](O)[C@H](O)[C@H]2O)CC[C@]2(C)[C@H]3C(=O)C=C4[C@@H]5C[C@@](C)(C(=O)O)CC[C@]5(C)CC[C@@]4(C)[C@]3(C)CC[C@@H]12 [Ammonium Glycyrrhizinate]	–	–	–	–	83.3	106.3	81.6	90.4	–
N#C[C@H](O[C@@H]1O[C@H](CO[C@@H]2O[C@H](CO)[C@@H](O)[C@H](O)[C@H]2O)[C@@H](O)[C@H](O)[C@H]1O)c1ccccc1 [Amygdalin]	96.2	94.7	92.1	94.3	–	–	–	–	–
CC(C)(O)[C@H]1CC[C@@](C)([C@H]2[C@@H](O)C[C@@]3(C)[C@@H]4C[C@H](O[C@@H]5O[C@H](CO)[C@@H](O)[C@H](O)[C@H]5O)[C@H]5C(C)(C)[C@@H](O[C@@H]6OC[C@@H](O)[C@H](O)[C@H]6O)CC[C@@]56C[C@@]46CC[C@]23C)O1 [Astragaloside A]	–	–	–	–	103.8	108.8	101.9	104.8	–
O=[N+]([O-])c1ncc[nH]1 [Azomycin]	74.2	78.5	76.2	76.3	–	–	–	–	–
COc1ccc2cc3[n+](cc2c1OC)CCc1cc2c(cc1-3)OCO2.[Cl-] [Berberine HCl]	–	–	–	–	52.4	58.4	54.2	55.0	–
CC(C)(C)[C@]1(O)CC2OC(=O)CC23C(=O)OC2OC(=O)[C@H](O)C231 (some centres unmarked) [Bilobalide]	–	–	–	–	–	–	–	–	remaining activity at 10 µM (read-out: DPP4 activity in library screen, Exp 1): 97.2%; remaining activity at 10 µM (read-out: DPP4 activity in library screen, Exp 2): 94.5%; remaining activity at 10 µM (read-out: DPP4 activity in library screen, Exp 3): 103%; remaining activity at 10 µM (read-out: DPP4 activity in library screen, Mean): 98.2%
COc1ccc(-c2coc3cc(O)cc(O)c3c2=O)cc1 [Biochanin A]	–	–	–	–	94.6	100.9	85.2	93.6	–
CCCCCCCCCCCCCCCC(=O)OC[C@@]1(O)C[C@@]23CC[C@@H]4c5ccoc5CC[C@@]4(C)[C@@H]2CC[C@@H]1C3 [Cafestol palmitate]	–	–	–	–	96.3	108.3	144	116.2	–
CN1CC[C@]23c4ccccc4N[C@H]1[C@]21CCN(C)[C@H]3Nc2ccccc21 [Calycanthine]	–	–	–	–	98.1	98.8	109.2	102.0	–
CCC1=C[C@@H]2CN3CCc4c([nH]c5ccccc45)[C@@](C(=O)OC)(C2)[C@@H]13 [Catharanthine]	–	–	–	–	117.2	93.7	139.2	116.7	–
C=C[C@H]1CN2CC[C@H]1C[C@H]2[C@H](O)c1ccnc2ccccc12 [Cinchonidine]	90.5	97.4	97.3	95.1	–	–	–	–	–
C[C@H]1COC2=C1C(=O)C(=O)c1c2ccc2c1CCCC2(C)C [Cryptotanshinone]	60.3	66.5	58.2	61.7	–	–	–	–	–
C=C1C[C@@]2(O)O[C@@]3(C[C@H]2C(C)C)[C@@H](C)CC[C@@H]13 [Curcumol]	–	–	–	–	100.6	99.6	110.6	103.6	–
Cl.N=c1ccn2c(n1)O[C@H]1[C@H](O)[C@@H](CO)O[C@H]12 [Cyclocytidine HCl]	–	–	–	–	110.3	95	97.8	101.0	–

Continued, in another order:

remaining activity at 10 µM [3] [%]	remaining activity at 10 µM [4] [%]	remaining activity at 10 µM [5] [%]	remaining activity at 10 µM [6] [%]	Structure (SMILES)	DPP4 activity in library screen, Exp 1 [1]	DPP4 activity in library screen, Exp 2 [1]	DPP4 activity in library screen, Exp 3 [1]	DPP4 activity in library screen, Mean [2]	also measured
92	93.9	107	97.5	O=C(O)CCCc1c[nH]c2ccccc12 [3-Indolebutyric acid (IBA), 3-Indolebutyric acid]	–	–	–	–	–
93.3	82.6	90.6	88.8	N[C@@H](Cc1c[nH]c2ccc(O)cc12)C(=O)O [5-hydroxytryptophan (5-HTP), 5-hydroxytryptophan]	–	–	–	–	–
100	90.2	81.9	90.8	O=C(O[C@@H]1Cc2c(O)cc(O)cc2O[C@@H]1c1cc(O)c(O)c(O)c1)c1cc(O)c(O)c(O)c1 [(-)-Epigallocatechin Gallate]	–	–	–	–	–
91.5	70.4	71.7	77.9	O=C1c2c(O)cccc2C([C@@H]2O[C@H](CO)[C@@H](O)[C@H](O)[C@H]2O)c2cc(CO)cc(O)c21 (some centres unmarked) [Aloin]	–	–	–	–	–
103	100	96.8	100	C=C1CC[C@@H]2[C@](C)(CO)[C@H](O)CC[C@@]2(C)[C@@H]1C/C=C1/C(=O)OC[C@H]1O [Andrographolide]	–	–	–	–	–
97.4	70.3	67.8	78.5	O=c1cc(-c2ccc(O)cc2)oc2cc(O)cc(O)c12 [Apigenin]	–	–	–	–	–
82.6	90.9	116	96.6	COc1cc(C(C)=O)ccc1O [Apocynin]	–	–	–	–	–
95.9	96.2	96.1	96.1	OC[C@H]1O[C@@H](Oc2ccc(O)cc2)[C@H](O)[C@@H](O)[C@@H]1O [Arbutin]	–	–	–	–	–
95.1	99	87	93.7	C[C@H]1[C@H](OC(=O)CCC(=O)O)O[C@@H]2O[C@@]3(C)CC[C@H]4[C@H](C)CC[C@@H]1[C@@]24OO3 [Artesunate]	–	–	–	–	–
83.3	65.3	130	93	C[C@H]1[C@H](C)CC[C@]2(C(=O)O)CC[C@]3(C)C(=CC[C@@H]4[C@@]5(C)C[C@@H](O)[C@H](O)[C@@](C)(CO)[C@@H]5CC[C@]43C)[C@H]12 [Asiatic Acid]	–	–	–	–	–
71.4	51.3	111	77.9	O=C(O)[C@H]1O[C@@H](Oc2cc3oc(-c4ccccc4)cc(=O)c3c(O)c2O)[C@H](O)[C@@H](O)[C@@H]1O [Baicalin]	–	–	–	–	–
114	102	73.5	96.3	COc1c(O)cc2c(c1O)[C@@H]1O[C@H](CO)[C@@H](O)[C@H](O)[C@H]1OC2=O [Bergenin]	–	–	–	–	–
97.5	98.7	78.2	91.5	CCCC[N+]1(C)[C@@H]2C[C@@H](OC(=O)[C@H](CO)c3ccccc3)C[C@H]1[C@@H]1O[C@@H]12 (some centres unmarked) [Butylscopolamine bromide]	–	–	–	–	–
71.3	81.8	102	84.9	O=C(/C=C/c1ccc(O)c(O)c1)O[C@@H]1C[C@](O)(C(=O)O)C[C@@H](O)[C@H]1O [Chlorogenic Acid]	–	–	–	–	–
85.4	87.6	71.2	81.4	O=c1cc(-c2ccccc2)oc2cc(O)cc(O)c12 [Chrysin]	–	–	–	–	–
